Source: patent publication US11180462B2, “Microbiocidal oxadiazole derivatives” (SYNGENTA PARTICIPATIONS AG, priority 2015, dated 2021)

Assays:
[1] = system: Glomerella lagenarium (Colletotrichum lagenarium); assay: Fungicidal activity against Glomerella lagenarium (Colletotrichum lagenarium) liquid culture / cucumber / preventative (anthracnose); format: cell-based; details: Colletotrichum orbiculare; 20 ppm in the applied formulation; liquid culture (PDB), growth inhibition measured photometrically after 3 to 4 days; compared to untreated control; read-out: disease control
How it was run: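 Photometric read-out of fungal growth after 2–7 days, expressed as percent antifungal activity versus untreated check. Cryo-stored conidia in PDB; compound at 20 ppm; dark, 24 °C, 96% RH.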

[2] = system: Puccinia recondita f. Sp. Tritici; assay: Fungicidal activity against Puccinia recondita f. sp. tritici / wheat / leaf disc preventative (brown rust); format: in vivo; details: foliar, 200 ppm in the applied formulation, wheat leaf segments, preventative, compared to untreated control leaf disks, read-out: disease control
How it was run: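 Preventative leaf-segment test, wheat cv. Kanzler on water agar. Spray compound at 200 ppm, inoculate with spores 1 day later; 19° C., 75% rh, 12/12 h light. Read-out: % disease control vs untreated, 7 to 9 days after application.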

Phakopsora Pachyrhizi = assay: Fungicidal activity against Phakopsora pachyrhizi / soybean / leaf disc preventative (Asian soybean rust); format: in vivo; details: foliar, 200 ppm in the applied formulation, soybean leaf disks, compared to untreated control leaf disks, read-out: disease control
How it was run: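 Preventative soybean leaf-disc test: discs on water agar sprayed with diluted formulated compound, inoculated one day later with spores on the lower surface. Held 24–36 h dark at 20°C, 75% rh, then 12 h light/day; percent disease control versus untreated discs scored 12–14 days after application.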

[3] = system: Puccinia recondita f. Sp. Tritici; assay: Fungicidal activity against Puccinia recondita f. sp. tritici / wheat / leaf disc curative (brown rust); format: in vivo; details: foliar, 24 h, 200 ppm in the applied formulation, wheat leaf segments, curative (applied 1 day after inoculation), compared to untreated control leaf disks, read-out: disease control
How it was run: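 Segments of wheat cv. Kanzler were laid on agar and inoculated with a spore suspension of the rust, then held in darkness at 19° C and 75% relative humidity. One day later the water-diluted formulated compound was applied, with incubation continued under a 12 h light/dark cycle.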

CCON(Cc1ccc(-c2noc(C(F)(F)F)n2)cc1)C(=O)C(C)OC (centres unmarked) [Compound 1.629, N-ethoxy-2-methoxy-N-[[4-[5-(trifluoromethyl)-1,2,4-oxadiazol-3-yl]phenyl]methyl]-propanamide]
≥ 80%: inhibition of growth at 20 ppm [1] | pest or weed control at 200 ppm [2] | pest or weed control at 200 ppm (Phakopsora Pachyrhizi) | pest or weed control at 200 ppm [3]

O=C(C1CCCO1)N(Cc1ccc(-c2noc(C(F)(F)F)n2)cc1)CC(F)(F)F (centres unmarked) [Compound 1.587, N-(2,2,2-Trifluoroethyl)-N-[[4-[5-(Trifluoromethyl)-1,2,4-Oxadiazol-3-yl]Phenyl]Methyl]Tetrahydrofuran-2-Carboxamide]
≥ 80%: inhibition of growth at 20 ppm [1] | pest or weed control at 200 ppm [2] | pest or weed control at 200 ppm (Phakopsora Pachyrhizi) | pest or weed control at 200 ppm [3]

CCCON(Cc1ccc(-c2noc(C(F)(F)F)n2)cc1)C(=O)C1(C)COC1 [Compound 1.309, 3-methyl-N-propoxy-N-[[4-[5-(trifluoromethyl)-1,2,4-oxadiazol-3-yl]phenyl]methyl]-oxetane-3-carboxamide]
≥ 80%: inhibition of growth at 20 ppm [1] | pest or weed control at 200 ppm [2] | pest or weed control at 200 ppm (Phakopsora Pachyrhizi) | pest or weed control at 200 ppm [3]

CCCC(=O)N(Cc1ccc(-c2noc(C(F)(F)F)n2)cc1)C1CC1 [Compound 1.97, N-cyclopropyl-N-[[4-[5-(trifluoromethyl)-1,2,4-oxadiazol-3-yl]phenyl]methyl]-butanamide]
≥ 80%: inhibition of growth at 20 ppm [1] | pest or weed control at 200 ppm [2] | pest or weed control at 200 ppm (Phakopsora Pachyrhizi) | pest or weed control at 200 ppm [3]

CCC(COC)C(=O)N(Cc1ccc(-c2noc(C(F)(F)F)n2)cc1)C1COC1 (centres unmarked) [Compound 1.745, 2-(methoxymethyl)-N-(oxetan-3-yl)-N-[[4-[5-(trifluoromethyl)-1,2,4-oxadiazol-3-yl]phenyl]methyl]-butanamide]
≥ 80%: inhibition of growth at 20 ppm [1] | pest or weed control at 200 ppm [2] | pest or weed control at 200 ppm (Phakopsora Pachyrhizi) | pest or weed control at 200 ppm [3]

CON(Cc1ccc(-c2noc(C(F)(F)F)n2)cc1)C(=O)C(C)(C)CCl [Compound 1.35, 3-chloro-N-methoxy-2,2-dimethyl-N-[[4-[5-(trifluoromethyl)-1,2,4-oxadiazol-3-yl]phenyl]methyl]-propanamide]
≥ 80%: inhibition of growth at 20 ppm [1] | pest or weed control at 200 ppm [2] | pest or weed control at 200 ppm (Phakopsora Pachyrhizi) | pest or weed control at 200 ppm [3]

CON(Cc1ccc(-c2noc(C(F)(F)F)n2)cn1)C(=O)C1CC1 [Compound 1.570, N-methoxy-N-[[5-[5-(trifluoromethyl)-1,2,4-oxadiazol-3-yl]-2-pyridyl]methyl]cyclopropanecarboxamide]
≥ 80%: inhibition of growth at 20 ppm [1] | pest or weed control at 200 ppm [2] | pest or weed control at 200 ppm (Phakopsora Pachyrhizi) | pest or weed control at 200 ppm [3]

CON(Cc1ccc(-c2noc(C(F)(F)F)n2)cc1)C(=O)C(C)O (centres unmarked) [Compound 1.786, 2-hydroxy-N-methoxy-N-[[4-[5-(trifluoromethyl)-1,2,4-oxadiazol-3-yl]phenyl]methyl]-propanamide]
≥ 80%: inhibition of growth at 20 ppm [1] | pest or weed control at 200 ppm [2] | pest or weed control at 200 ppm (Phakopsora Pachyrhizi) | pest or weed control at 200 ppm [3]

C#CCN(Cc1ccc(-c2noc(C(F)(F)F)n2)cc1)C(=O)C(C)CC(C)=O (centres unmarked) [Compound 1.164, 2-methyl-4-oxo-N-prop-2-ynyl-N-[[4-[5-(trifluoromethyl)-1,2,4-oxadiazol-3-yl]phenyl]methyl]-pentanamide]
≥ 80%: inhibition of growth at 20 ppm [1] | pest or weed control at 200 ppm [2] | pest or weed control at 200 ppm (Phakopsora Pachyrhizi) | pest or weed control at 200 ppm [3]

C#CCCC(=O)N(Cc1ccc(-c2noc(C(F)(F)F)n2)cc1)C1CC1 [Compound 1.86, N-cyclopropyl-N-[[4-[5-(trifluoromethyl)-1,2,4-oxadiazol-3-yl]phenyl]methyl]-pent-4-ynamide]
≥ 80%: inhibition of growth at 20 ppm [1] | pest or weed control at 200 ppm [2] | pest or weed control at 200 ppm (Phakopsora Pachyrhizi) | pest or weed control at 200 ppm [3]

COC(C)C(=O)N(Cc1ccc(-c2noc(C(F)(F)F)n2)cc1)C1CC1 (centres unmarked) [Compound 1.147, N-cyclopropyl-2-methoxy-N-[[4-[5-(trifluoromethyl)-1,2,4-oxadiazol-3-yl]phenyl]methyl]-propanamide]
≥ 80%: inhibition of growth at 20 ppm [1] | pest or weed control at 200 ppm [2] | pest or weed control at 200 ppm (Phakopsora Pachyrhizi) | pest or weed control at 200 ppm [3]

O=C(Cc1ccccc1)N(Cc1ccc(-c2noc(C(F)(F)F)n2)cc1)C1CC1 [Compound 1.121, N-cyclopropyl-2-phenyl-N-[[4-[5-(trifluoromethyl)-1,2,4-oxadiazol-3-yl]phenyl]methyl]-acetamide]
≥ 80%: inhibition of growth at 20 ppm [1] | pest or weed control at 200 ppm [2] | pest or weed control at 200 ppm (Phakopsora Pachyrhizi) | pest or weed control at 200 ppm [3]

CCC(C)N(Cc1ccc(-c2noc(C(F)(F)F)n2)cc1)C(=O)C1CCCCO1 (centres unmarked) [Compound 1.368, N-sec-butyl-N-[[4-[5-(trifluoromethyl)-1,2,4-oxadiazol-3-yl]phenyl]methyl]-tetrahydropyran-2-carboxamide]
≥ 80%: inhibition of growth at 20 ppm [1] | pest or weed control at 200 ppm [2] | pest or weed control at 200 ppm (Phakopsora Pachyrhizi) | pest or weed control at 200 ppm [3]

CCN(Cc1ccc(-c2noc(C(F)(F)F)n2)cc1)C(=O)C1OCCO1 [Compound 1.513, N-ethyl-N-[[4-[5-(trifluoromethyl)-1,2,4-oxadiazol-3-yl]phenyl]methyl]-1,3-dioxolane-2-carboxamide]
≥ 80%: inhibition of growth at 20 ppm [1] | pest or weed control at 200 ppm [2] | pest or weed control at 200 ppm (Phakopsora Pachyrhizi) | pest or weed control at 200 ppm [3]

CCC(C)C(=O)N(CCOC)Cc1ccc(-c2noc(C(F)(F)F)n2)cc1 (centres unmarked) [Compound 1.350, N-(2-methoxyethyl)-2-methyl-N-[[4-[5-(trifluoromethyl)-1,2,4-oxadiazol-3-yl]phenyl]methyl]-butanamide]
≥ 80%: inhibition of growth at 20 ppm [1] | pest or weed control at 200 ppm [2] | pest or weed control at 200 ppm (Phakopsora Pachyrhizi) | pest or weed control at 200 ppm [3]

O=C(NC1CC1)N(Cc1ccc(-c2noc(C(F)(F)F)n2)cc1)C1CC1 [Compound 3.36, 1,3-dicyclopropyl-1-[[4-[5-(trifluoromethyl)-1,2,4-oxadiazol-3-yl]phenyl]methyl]urea]
≥ 80%: inhibition of growth at 20 ppm [1] | pest or weed control at 200 ppm [2] | pest or weed control at 200 ppm (Phakopsora Pachyrhizi) | pest or weed control at 200 ppm [3]

COCCC(=O)N(C)Cc1ccc(-c2noc(C(F)(F)F)n2)cc1 [Compound 1.516, 3-methoxy-N-methyl-N-[[4-[5-(trifluoromethyl)-1,2,4-oxadiazol-3-yl]phenyl]methyl]-propanamide]
≥ 80%: inhibition of growth at 20 ppm [1] | pest or weed control at 200 ppm [2] | pest or weed control at 200 ppm (Phakopsora Pachyrhizi) | pest or weed control at 200 ppm [3]

CC1CC1C(=O)N(Cc1ccc(-c2noc(C(F)(F)F)n2)cc1)C1CC1 (centres unmarked) [Compound 1.115, N-cyclopropyl-2-methyl-N-[[4-[5-(trifluoromethyl)-1,2,4-oxadiazol-3-yl]phenyl]methyl]-cyclopropane-carboxamide]
≥ 80%: inhibition of growth at 20 ppm [1] | pest or weed control at 200 ppm [2] | pest or weed control at 200 ppm (Phakopsora Pachyrhizi) | pest or weed control at 200 ppm [3]

C=CCN(Cc1ccc(-c2noc(C(F)(F)F)n2)cc1)C(=O)C1CCC1 [Compound 1.478, N-allyl-N-[[4-[5-(trifluoromethyl)-1,2,4-oxadiazol-3-yl]phenyl]methyl]-cyclobutane-carboxamide]
≥ 80%: inhibition of growth at 20 ppm [1] | pest or weed control at 200 ppm [2] | pest or weed control at 200 ppm (Phakopsora Pachyrhizi) | pest or weed control at 200 ppm [3]

COCCN(Cc1ccc(-c2noc(C(F)(F)F)n2)cc1)C(=O)C(C)OC (centres unmarked) [Compound 1.359, 2-methoxy-N-(2-methoxyethyl)-N-[[4-[5-(trifluoromethyl)-1,2,4-oxadiazol-3-yl]phenyl]methyl]-propanamide]
≥ 80%: inhibition of growth at 20 ppm [1] | pest or weed control at 200 ppm [2] | pest or weed control at 200 ppm (Phakopsora Pachyrhizi) | pest or weed control at 200 ppm [3]
